This is an account of results in patent US20230277452A1, “COMPOSITIONS, DEVICES AND METHODS FOR TREATING NASAL, OTIC AND OTHER TISSUE INFECTION AND/OR INFLAMMATION” (priority 2020, published 2023).

Structures are written as SMILES.

A short description of this data set: Storage stability: impurities/degradants by HPLC. Type of data set: physicochemical. The protocol:
Particle size and globule size were likewise measured at the start of storage and at the one month or three month interval, respectively, according to USP 729. Impurities were also measured at the start of storage and at the one month or three month intervals, respectively. Viscosity was also measured at the start of storage and at the one month or three month intervals, respectively. Osmolality was also measured at the start of storage and at the one month or three month intervals, respectively, according to USP 785. Briefly, to measure betamethasone dipropionate and betamethasone content as well as impurities/degradants, HPLC was used. […] The 50 mL tubes were then removed from the heat and vortex mixed again for 30 seconds. If necessary, the tubes were returned to the water bath to prevent cooling. […] The tubes were then centrifuged for 30 minutes at 12,000 RPM and supernatant was transferred to a HPLC vial for analysis. The HPLC system was rinsed well with 50:50 acetonitrile:water to remove buffer salts after each run. […] HPLC was run using a Hypersil ODS 10×30 mm, 3 μm column as the Guard Column and a Hypersil ODS 3×150 mm, 3 μm column as the Analytical Column. The column temperature was maintained at 35° C. with a runtime of 45 minutes, a flow rate of 0.5 mL/minute, an injection volume of 3 μL, an autosampler temperature of 30° C., and using a 254 nm (UV absorbance) detector and collecting PDA from 200 nm to 400 nm for identification testing. […] Mobile Phase B was prepared as 88:12 methanol:acetonitrile. […] All mobile phase solutions were mixed well and degassed prior to use. […] A Working Standard Solution was prepared from 3.0 mL of the IS Stock Solution and 8.0 mL of the BD Stock in a 50 mL volumetric flask to which 150 mg of benzyl alcohol reference standard was added and diluent added to volume followed by mixing well. […] System suitability requirements included those in Table 38. The Ratio RT (RRT) in Table 39 can be calculated from the ratio of the sample retention time to the mean retention time of the bracketing standards.

[1] abbreviates: stored at 25° C./60% RH, 1 Month, Mean.
Setting [2] is: stored at 25° C./60% RH, 1 Month, Prep #1.
[3] abbreviates: stored at 25° C./60% RH, 1 Month, Prep #2.
[4] abbreviates: stored at 25° C./60% RH, 3 Month, Mean.
[5] abbreviates: stored at 25° C./60% RH, 3 Month, Prep #1.
[6] abbreviates: stored at 25° C./60% RH, 3 Month, Prep #2.
Where [7] appears, read: stored at 30° C./65% RH, 1 Month, Mean.
[8] abbreviates: stored at 30° C./65% RH, 1 Month, Prep #1.
Setting [9] is: stored at 30° C./65% RH, 1 Month, Prep #2.
The mark [10] stands for this setting: stored at 30° C./65% RH, 3 Month, Mean.
[11] abbreviates: stored at 30° C./65% RH, 3 Month, Prep #1.
[12] abbreviates: stored at 30° C./65% RH, 3 Month, Prep #2.
The mark [13] stands for this setting: stored at 40° C./75% RH, 1 Month, Mean.
[14] abbreviates: stored at 40° C./75% RH, 1 Month, Prep #1.
Where [15] appears, read: stored at 40° C./75% RH, 1 Month, Prep #2.
Where [16] appears, read: stored at 40° C./75% RH, 3 Month, Mean.
Setting [17] is: stored at 40° C./75% RH, 3 Month, Prep #1.
Setting [18] is: stored at 40° C./75% RH, 3 Month, Prep #2.
The mark [19] stands for this setting: stored at 25° C./60% RH, Initial, Mean.
Setting [20] is: stored at 25° C./60% RH, Initial, Prep #2.
Setting [21] is: stored at 30° C./65% RH, Initial, Mean.
Where [22] appears, read: stored at 30° C./65% RH, Initial, Prep #2.
The mark [23] stands for this setting: stored at 40° C./75% RH, Initial, Mean.
Where [24] appears, read: stored at 40° C./75% RH, Initial, Prep #2.

With `CCC(=O)OCC(=O)C1(O)C(C)CC2C3CCC4=CC(=O)C=CC4(C)C3(F)C(O)CC21C` (stereo not drawn) [Lot 4], the “Impurity (% of related substances) in Betamethasone Dipropionate Cream Formulation” value (“Impurity (% of related substances)” for short) under setting [1] is listed as 0.09%; the “Impurity (% of related substances)” value under setting [2] amounted to 0.08%; the “Impurity (% of related substances)” value under setting [3] was 0.10%; the “Impurity (% of related substances)” value under setting [4] worked out at 0.22%; the “Impurity (% of related substances)” value under setting [5] was determined as 0.19%; the “Impurity (% of related substances)” value under setting [6] is 0.25%. Further, the “Impurity (% of related substances)” value under setting [7] was found to be 0.15%; the “Impurity (% of related substances)” value under setting [8] is reported as 0.13%; the “Impurity (% of related substances)” value under setting [9] is 0.17%; the “Impurity (% of related substances)” value under setting [10] is listed as 0.50%; the “Impurity (% of related substances)” value under setting [11] came out at 0.44%; the “Impurity (% of related substances)” value under setting [12] is on record as 0.56%. Besides, the “Impurity (% of related substances)” value came out at 0.53% under setting [13]; 0.48% under setting [14]; 0.58% under setting [15]; 1.99% under setting [16]; 1.86% under setting [17]; 2.12% under setting [18].
Turning to `CCC(=O)OC1(C(=O)CO)C(C)CC2C3CCC4=CC(=O)C=CC4(C)C3(F)C(O)CC21C` (stereo not drawn) [Lot 5], the “Impurity (% of related substances)” value by setting is: under setting [1], 0.34%; under setting [2], 0.31%; under setting [3], 0.37%; under setting [4], 0.49%; under setting [5], 0.43%; under setting [6], 0.54%. In addition, the “Impurity (% of related substances)” value reads like this: under setting [19], 0.18%; (stored at 25° C./60% RH, Initial, Prep #1) 0.16%; under setting [20], 0.20%; under setting [7], 0.43%; under setting [8], 0.38%; under setting [9], 0.48%. Further, the “Impurity (% of related substances)” value under setting [10] was 0.73%; the “Impurity (% of related substances)” value under setting [11] was found to be 0.66%; the “Impurity (% of related substances)” value under setting [12] amounted to 0.79%; the “Impurity (% of related substances)” value under setting [21] is 0.18%; the “Impurity (% of related substances)” value (stored at 30° C./65% RH, Initial, Prep #1) is given as 0.16%; the “Impurity (% of related substances)” value under setting [22] is listed as 0.20%. For the same compound, the “Impurity (% of related substances)” value reads like this: under setting [13], 0.64%; under setting [14], 0.59%; under setting [15], 0.68%; under setting [16], 0.93%; under setting [17], 0.86%; under setting [18], 0.99%. Moreover, the “Impurity (% of related substances)” value under setting [23] came to 0.18%; the “Impurity (% of related substances)” value (stored at 40° C./75% RH, Initial, Prep #1) is on record as 0.16%; the “Impurity (% of related substances)” value under setting [24] was determined as 0.20%.
In the case of `CCC(=O)OCC(=O)[C@@]1(OC(=O)CC)[C@@H](C)C[C@H]2[C@@H]3CC(Br)C4=CC(=O)C=C[C@]4(C)[C@@]3(F)[C@@H](O)C[C@@]21C` (stereo partly drawn) [Lot 9], the “Impurity (% of related substances)” value was determined as 0.12% under setting [19]; 0.12% under setting [20]; 0.12% under setting [21]; 0.12% under setting [22]; 0.12% under setting [23]; 0.12% under setting [24].
